# Values of other authors, collected in US20030064123A1, “DHEA supplement for increasing women's libido” (priority 2001, published 2003).
# Tests used:
# [1] = post-menopausal women, oral DHEA 25 mg/day, after six months
# [2] = tested on: ventrobasal complex of the thalamus; details: rat
# [3] = tested on: androgen-deficient female patients; details: testosterone injections
smiles,measurement,setting,value
"C[C@]12CC[C@H](O)CC1=CC[C@@H]1[C@@H]2CC[C@]2(C)C(=O)CC[C@@H]12 [DHEA, Dihydroepiandosterone]",estrogen levels,[1],returned to premenopausal levels
same,testosterone levels,[1],returned to premenopausal levels
N=C(N)NCCC[C@H](N)C(=O)O [L-arginine],excitatory amino acid responses and sonato sensory transmission,[2],enhancement
C[C@]12CC[C@H]3[C@@H](CCC4=CC(=O)CC[C@@]43C)[C@@H]1CC[C@@H]2O [testosterone],libido and ability to become aroused and achieve a satisfactory orgasm,[3],resolved
